Experimental data published in patent US12359203B2, “Combination vectors and methods for treating cancer” (American Gene Technologies International Inc., priority 2016, dated 2025).

Tests used:
[1] = tested on: PC3 tumors; assay: PC3 tumor growth in NOD/SCID mice, transduced cells with or without zoledronic acid; format: in vivo; details: single dose of zoledronic acid
Description: Protocol overview for co-administration of LV-shRNA-FDPS (farnesyl diphosphate synthase) with or without zoledronic acid in mice implanted with human prostate cancer cell line PC3. Tumor cells were cultured in vitro, then transduced with lentivirus vector control with a scrambled sequence (nonfunctional) shRNA insert and an expression cassette for firefly luciferase, or LV-FDPS with a shRNA capable of reducing expression of FDPS mRNA and an expression cassette for firefly luciferase. The transduced tumor cells were implanted on the flank of immune deficient mice by subcutaneous injection. Once tumors reached approximately 200 mm^3 volume, all mice receive a single dose of zoledronic acid (100 micrograms per kilogram body weight, which is similar to a standard human dose) in saline. 7 days after zoledronic acid injection, an imaging study was repeated to measure volume and photon intensity of individual tumors.
Day—4: Material Preparation and Delivery. Prepare lenti-vector control and lenti-shRNA-FDPS transduced PC3 cells. • 1. […]
Effects of LV-shRNA-FDPS with or without zoledronic acid on PC3 tumor growth in NOD/SCID mice. […] A bioluminescence imaging study on Day 8 determined the average tumor sizes prior to zoledronic acid treatment (FIG. 10A). The photon intensity for tumors was measured with a CCD light capture system.

[2] = tested on: human CD47; assay: CD47 mRNA expression in Hep3B cells (quantitative RT-PCR); format: cell-based; details: 48 hours after transduction, mRNA normalized to actin, FIG. 7A
Description: Functional Assay: The effect of different CD47 shRNA targeting sequences on CD47 expression was determined by measuring mRNA expression. Hep3B hepatocellular carcinoma cells were transduced with a lentiviral vector containing CD47 shRNA sequences. After 48 hours, cells were lysed and RNA was extracted using the RNeasy mini kit from Qiagen. cDNA was then synthesized from RNA using SuperScript VILO from Invitrogen. The samples were then analyzed by quantitative RT-PCR using an Applied Biosystems StepOne PCR machine. CD47 expression was detected with SYBR Green from Invitrogen using the forward primer (5′-[…]-3′) (SEQ ID NO: 63) and reverse primer (5′-GCCTCTTGACATTCTCCTC-3′) (SEQ ID NO: 64). The samples were normalized by measuring actin expression using the forward primer (5′-AGCGCGGCTACAGCTTCA-3′) (SEQ ID NO: 61) and reverse primer (5′-[…]-3′) (SEQ ID NO: 65). The relative expression of CD47 was determined by its Ct value normalized to the level of actin for each sample.

[3] = tested on: human FDPS; assay: Functional assay for FDPS mRNA reduction (quantitative RT-PCR); format: cell-based; details: HepG2 cells, 48 hours after transduction, mRNA normalized to actin; FIG. 4A
Description: (§1) Vector Construction: For FDPS shRNA, oligonucleotide sequences containing BamHI and EcoRI restriction sites were synthesized by MWG operon. Oligonucleotide sequences were annealed by incubation at 70 degrees Celsius and cooling to room temperature. Annealed oligonucleotides were digested with the restriction enzymes BamHI and EcoRI for one hour at 37 degrees Celsius and then the enzymes were heat-inactivated at 70 degrees Celsius for 20 minutes. In parallel, the lentiviral vector was digested with the restriction enzymes BamHI and EcoRI for one hour at 37 degrees Celsius. […] The DNA concentration was determined and the vector to oligo sequence was ligated in the ratio 3:1 insert to vector. […] Cells were collected after 2-4 days and protein and RNA was analyzed for FDPS expression.
Functional Assay for mRNA Reduction: The effect of different FDPS short homology RNA (shRNA) targeting sequences on FDPS expression was determined by measuring mRNA expression. […] The samples were then analyzed by quantitative RT-PCR using an Applied Biosystems StepOne PCR machine. FDPS expression was detected with SYBR Green from Invitrogen using the forward primer (5′-[…]-3′) (SEQ ID NO: 59) and reverse primer (5′-[…]-3′) (SEQ ID NO: 60) with standard conditions for polymerase chain reaction analysis. […] The relative expression of FDPS was determined by its Ct value normalized to the level of actin for each sample.

[4] = tested on: FDPS; assay: FDPS immunoblot in HepG2 cells infected with lentiviral vectors; format: cell-based, human; details: 48 hours, FIG. 4B
Description: HepG2 human hepatocellular carcinoma cells were infected with lentiviral vectors containing either the H1 promoter and a FDPS shRNA (SEQ ID NO: 4) sequence or the EF-1alpha promoter and the following miR30-based FDPS sequences:
After 48 hours, cells were lysed and an immunoblot was performed using an anti-FDPS (Thermo Scientific) and an anti-actin (Sigma) antibody for a protein loading control. […] Treatment with the miR30-based FDPS sequences decreased FDPS expression.

[5] = tested on: human cMyc; assay: cMyc mRNA expression in HepG2 cells (quantitative PCR); format: cell-based; details: 48 hours after transduction, mRNA normalized to actin, FIG. 8A
Description: as §1, with “cMyc” for “FDPS”
Functional Assay: The effect of different cMyc shRNA targeting sequences on cMyc expression was determined by measuring mRNA expression. […] The samples were then analyzed by quantitative PCR using an Applied Biosystems StepOne PCR machine. cMyc expression was detected with SYBR Green from Invitrogen using the forward primer (5′-GGACTATCCTGCTGCCAA-3′) (SEQ ID NO: 69) and reverse primer (5′-GCCTCTTGACATTCTCCTC-3′) (SEQ ID NO: 64). […] The relative expression of cMyc was determined by its Ct value normalized to the level of actin for each sample.

[6] = tested on: cMyc; assay: cMyc immunoblot in SNU449 cells infected with lentiviral vectors; format: cell-based, human; details: 48 hours, FIG. 8B
Description: After 48 hours, cells were lysed and an immunoblot was performed using an anti-cMyc (Santa Cruz) and an anti-actin (Sigma) antibody for a protein loading control.

Molecule: O=P(O)(O)C(O)(Cn1ccnc1)P(=O)(O)O [zoledronic acid]
- toxicity in mice [1]: not toxic

Molecule: CD47 sequence 1: CD47 shRNA, SEQ ID NO: 5 (DNA GGTGAAACGATCATCGAGCCTCGAGGCTCGATGATCGTTTCACCTTTTT)
- relative expression level of human CD47 [2]: most significant inhibition

Molecule: CD47 sequence 3: CD47 shRNA, SEQ ID NO: 7 (DNA CCTCCTTCGTCATTGCCATCTCGAGATGGCAATGACGAAGGAGGTTTTT)
- relative expression level of human CD47 [2]: most significant inhibition

Molecule: FDPS-2: FDPS shRNA, SEQ ID NO: 2 (DNA GCAGGATTTCGTTCAGCACTTCTCGAGAAGTGCTGAACGAAATCCTGCTTTTT)
- relative expression level of human FDPS [3]: most significant inhibition

Molecule: FDPS-4: FDPS shRNA, SEQ ID NO: 4; used with H1 promoter in FIG. 4B (DNA GCAGAAGGAGGCTGAGAAAGTCTCGAGACTTTCTCAGCCTCCTTCTGCTTTTT)
- relative expression level of human FDPS [3]: most significant inhibition
- FDPS protein expression [4]: significantly decreased

Molecule: cMyc shRNA Sequence 2: cMyc shRNA, SEQ ID NO: 11 (DNA GCGAACACACAACGTCTTGGACTCGAGTCCAAGACGTTGTGTGTTCGCTTTT)
- relative expression level of human cMyc [5]: most significant inhibition

Molecule: cMyc shRNA Sequence 4: cMyc shRNA, SEQ ID NO: 13; used in FIG. 8B (GAGAATGTCAAGAGGCGAACACTCGAGTGTTCGCCTCTTGACATTCTCTTTTT)
- cMyc protein expression [6]: significantly decreased
